Assay results from BindingDB's records for doi:10.1016/0014-2999(86)90335-3 (Janssen Pharmaceutica, 1986).
pKi: −log10 of the molar value. Values joined by “and” are separate entries in the source; they are usually repeats but may differ in a detail not shown here. Equal entries are not always repeated.

Key:
[1] = molecular target: T1, Alpha-1A adrenergic receptor (Rattus norvegicus, UniProt P43140)
T1 sequence (P43140 whole entry): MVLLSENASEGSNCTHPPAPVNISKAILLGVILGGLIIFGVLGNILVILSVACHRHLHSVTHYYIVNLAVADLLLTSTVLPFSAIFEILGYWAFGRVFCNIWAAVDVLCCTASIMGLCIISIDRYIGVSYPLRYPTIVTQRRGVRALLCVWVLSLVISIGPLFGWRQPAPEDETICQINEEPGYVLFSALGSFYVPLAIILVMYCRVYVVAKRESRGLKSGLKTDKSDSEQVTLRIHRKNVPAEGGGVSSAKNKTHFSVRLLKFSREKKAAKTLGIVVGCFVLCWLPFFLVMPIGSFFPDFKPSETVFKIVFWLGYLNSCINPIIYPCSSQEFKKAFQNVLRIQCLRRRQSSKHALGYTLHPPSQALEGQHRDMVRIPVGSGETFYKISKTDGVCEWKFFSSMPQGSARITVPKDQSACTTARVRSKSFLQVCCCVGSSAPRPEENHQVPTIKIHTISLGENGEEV

[2] = molecular target: T2, Alpha-2C adrenergic receptor (Rattus norvegicus, UniProt P22086)
T2 sequence (P22086 whole entry): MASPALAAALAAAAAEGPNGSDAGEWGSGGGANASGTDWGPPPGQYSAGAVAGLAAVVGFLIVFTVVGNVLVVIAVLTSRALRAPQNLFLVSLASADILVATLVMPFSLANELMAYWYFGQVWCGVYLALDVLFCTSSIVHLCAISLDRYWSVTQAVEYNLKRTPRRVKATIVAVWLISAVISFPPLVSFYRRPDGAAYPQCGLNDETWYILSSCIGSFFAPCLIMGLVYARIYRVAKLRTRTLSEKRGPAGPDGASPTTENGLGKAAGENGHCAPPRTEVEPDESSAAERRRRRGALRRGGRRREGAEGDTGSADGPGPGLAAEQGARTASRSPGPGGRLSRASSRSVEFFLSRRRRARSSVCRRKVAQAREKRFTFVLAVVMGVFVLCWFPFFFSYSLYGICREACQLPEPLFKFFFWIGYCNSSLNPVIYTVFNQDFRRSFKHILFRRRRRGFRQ

Row | SMILES | pKi [1] | pKi [2]
1 | c1ccc2c(c1)OCC(C1=NCCN1)O2 (configuration not stated) | 6.00 | 
2 | CN1CCN(CC/C=C2/c3ccccc3Sc3ccc(S(=O)(=O)N(C)C)cc32)CC1 [MLS000028463] | 7.60 | 5.92 and 5.85
3 | Cc1ccc2nc(C)c(CCN3CCC(C(=O)c4ccc(F)cc4)CC3)c(=O)n2c1 [CAS_72005] | 8.10 | 8.00 and 8.60 and 8.55
4 | CN1C[C@H](C(=O)N[C@]2(C)O[C@@]3(O)[C@@H]4CCCN4C(=O)[C@H](Cc4ccccc4)N3C2=O)C=C2c3cccc4[nH]cc(c34)C[C@H]21 [12'-hydroxy-2'-methyl-5'alpha-(phenylmethyl)ergotaman-3',6',18-trione] | 7.60 | 7.92 and 8.40 and 8.46 and 8.20
5 | CS(=O)(=O)c1ccc2c(c1)N(CCCN1CCC(C(N)=O)CC1)c1ccccc1S2 [NSC_26388] | 8.60 | 
6 | c1ccc(CC2=NCCN2)cc1 [Tolazoline] | 5.49 | 6.35 and 6.92 and 6.05 and 6.30
7 | O=C(c1ccc(F)cc1)C1CCN(CCCCn2c(=O)[nH]c3ccccc3c2=O)CC1 [CAS_87051-46-5] | 9.35 | 6.30 and 6.40 and 7.18 and 7.22
8 | O=C(c1ccc(F)cc1)C1CCN(CCn2c(=S)[nH]c3ccccc3c2=O)CC1 |  | 6.54 and 6.70 and 6.55 and 7.15
9 | Cc1nc2ccccn2c(=O)c1CCN1CCC(C(=O)c2ccc(F)cc2)CC1 | 7.70 | 8.10 and 8.35 and 7.74 and 7.70
10 | N#Cc1ccc2c(c1)N(CCCN1CCC(O)CC1)c1ccccc1S2 | 8.39 | 
11 | Cc1nc2n(c(=O)c1CCN1CCC(C(=O)c3ccc(F)cc3)CC1)CCS2 [CAS_86487-64-1] | 7.49 | 
